Results taken from the NIST ThermoML archive (doi:10.1021/je100803e).

Columns and labels:
[1] = xn = mol fraction of the nth substance listed; conditions: 298.15 K, 101 kPa, Liquid; for viscosity: Capillary tube (Ostwald / Ubbelohde) method
[2] = refractive index (Na D-line) (dimensionless); xn = mol fraction of the nth substance listed; conditions: 298.15 K, 101 kPa, Liquid, Standard Abbe refractometry
[3] = for Normal melting temperature: Crystal; for vapor or sublimation pressure: Ebulliometric method (Recirculating still)
[4] = refractive index (Na D-line) (dimensionless); conditions: 298.15 K; 101.33 kPa; Liquid; Standard Abbe refractometry

CCOC(=O)CCC(=O)OCC [diethyl butanedioate] + O=C1CCCO1
Conditions | mass density, [1] [kg/m3] | refractive index, [2] | viscosity, [1] [mPa·s]
x2 = 0 | 1035.5 | 1.4179 | 2.393
x2 = 0.05 | 1037.5 | 1.4185 | 2.381
x2 = 0.1 | 1040 | 1.419 | 2.375
x2 = 0.2 | 1045.3 | 1.4201 | 2.356
x2 = 0.2999 | 1051.1 | 1.4213 | 2.318
x2 = 0.4 | 1057.8 | 1.4227 | 2.284
x2 = 0.5 | 1065.3 | 1.4242 | 2.226
x2 = 0.6 | 1073.8 | 1.4259 | 2.153
x2 = 0.7 | 1083.5 | 1.4278 | 2.073
x2 = 0.8 | 1094.9 | 1.4299 | 1.952
x2 = 0.9 | 1108.4 | 1.4323 | 1.817
x2 = 0.95 | 1116.2 | 1.4336 | 1.745

O [water]
Conditions | Normal melting temperature [°C]
[3] | -0.10

O [water] + O=C1CCCO1
x1 = 1
Conditions | refractive index | viscosity [mPa·s]
[1] | – | 0.8756
[2] | 1.3325 | –

O=C1CCCO1 [γ-butyrolactone]
Conditions | mass density [kg/m3]
[3], 298.15 K, 101.3 kPa, Liquid | 1124.5

Conditions | viscosity [mPa·s]
[3], 298.15 K, 101.3 kPa, Liquid, Capillary tube (Ostwald / Ubbelohde) method | 1.654

[3], Liquid
Conditions | vapor or sublimation pressure [kPa]
376.99 K | 4
400.58 K | 10
405.68 K | 12
420.76 K | 20
433.66 K | 30
443.36 K | 40
451.22 K | 50
457.88 K | 60
463.68 K | 70
468.84 K | 80
473.49 K | 90
477.54 K | 100

Conditions | Normal melting temperature [°C] | refractive index
[3] | -43.72 | –
[4] | – | 1.435

O=C1CCCO1 [γ-butyrolactone] + CCOC(=O)CCC(=O)OCC
x1 = 1
Conditions | mass density [kg/m3] | refractive index | viscosity [mPa·s]
[1] | 1124.5 | – | 1.654
[2] | – | 1.435 | –

O=C1CCCO1 [γ-butyrolactone] + O
Conditions | mass density, [1] [kg/m3] | refractive index, [2] | viscosity, [1] [mPa·s]
x2 = 0 | 1124.5 | 1.435 | 1.654
x2 = 0.05 | 1123 | 1.4337 | 1.621
x2 = 0.1002 | 1121.5 | 1.4325 | 1.6
x2 = 0.2 | 1118.2 | 1.4295 | 1.606
x2 = 0.3 | 1115.1 | 1.4265 | 1.645
x2 = 0.4 | 1110.9 | 1.4226 | 1.706
x2 = 0.5 | 1105.9 | 1.4175 | 1.766
x2 = 0.6 | 1098.8 | 1.4116 | 1.8
x2 = 0.7 | 1088.6 | 1.4017 | 1.787
x2 = 0.8 | 1073.2 | 1.3888 | 1.668
x2 = 0.9 | 1047.1 | 1.3684 | 1.385
x2 = 0.95 | 1026.6 | 1.3531 | 1.16
